Target: T1, Human complement C1s enzyme (Homo sapiens, UniProt P09871)
T1 construct: purified from human serum, Complement Technology, Inc; purchased Complement Technology, Inc; host or cells: human serum (plasma-derived native protein)
T1 sequence (P09871 438-688 limits assumed): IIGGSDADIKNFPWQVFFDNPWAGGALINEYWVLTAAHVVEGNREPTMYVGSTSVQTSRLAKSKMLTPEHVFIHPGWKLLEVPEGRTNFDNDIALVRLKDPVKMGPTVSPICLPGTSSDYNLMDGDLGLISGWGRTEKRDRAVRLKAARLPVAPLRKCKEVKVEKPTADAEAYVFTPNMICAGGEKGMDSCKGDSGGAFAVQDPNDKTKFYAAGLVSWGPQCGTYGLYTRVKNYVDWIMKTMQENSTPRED
T1 sequence (P09871 16-437 partner limits assumed): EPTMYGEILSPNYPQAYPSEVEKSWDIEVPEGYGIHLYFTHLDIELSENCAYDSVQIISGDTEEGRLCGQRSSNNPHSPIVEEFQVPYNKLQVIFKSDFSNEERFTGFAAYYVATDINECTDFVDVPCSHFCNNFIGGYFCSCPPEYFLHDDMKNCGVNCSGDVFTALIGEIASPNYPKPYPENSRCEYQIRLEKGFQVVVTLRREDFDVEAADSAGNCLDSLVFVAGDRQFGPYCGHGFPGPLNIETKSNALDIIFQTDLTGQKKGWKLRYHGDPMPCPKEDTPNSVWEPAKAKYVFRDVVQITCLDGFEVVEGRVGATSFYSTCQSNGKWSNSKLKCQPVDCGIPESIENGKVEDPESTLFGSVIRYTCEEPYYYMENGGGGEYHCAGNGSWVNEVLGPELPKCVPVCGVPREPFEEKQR
Assay: Human C1s enzyme assay
Assay type: biochemical
Conditions: human complement C1s enzyme 1.16 nM, substrate Z-L-Lys-SBzl, A405; read-out: IC50 (Stars)
Summary of the method: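 Serum-purified human C1s (1.16 nM final) preincubated 5 min at room temperature with compound in 50 mM Tris, 1 M NaCl, pH 7.5. Z-L-Lys-SBzl and DTNB added at 100 μM each; A405 recorded every 30 s. IC50 from nonlinear regression of reaction rates versus compound concentration.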

SMILES | IC50 [nM]
C[C@@H](Nc1cnc(-c2ccccc2F)n(CC(=O)NCc2cc3cnccc3[nH]2)c1=O)c1ccc(-c2ccccc2F)cc1 [Compound 308, (R)—N-((1H-pyrrolo[3,2-c]pyridine-2-yl)methyl)-2-(5-((1-(2′-fluoro-[1,1′-biphenyl]-4-yl)ethyl)amino)-2-(2-fluorophenyl)-6-oxopyrimidin-1(6H)-yl)acetamide] | < 100
C[C@H](Nc1cnc(-c2ccccc2F)n(CC(=O)NCc2cc3cnccc3[nH]2)c1=O)c1ccc2c(c1)oc1ccccc12 [Compound 309, (S)-N-((1H-pyrrolo[3,2-c]pyridin-2-yl)methyl)-2-(5-((1-(dibenzo[b,d]furan-3-yl)ethyl)-amino)-2-(2-fluorophenyl)-6-oxopyrimidin-1(6H)-yl)acet-amide] | < 100
C[C@@H](Nc1cncn(CC(=O)NCc2cc3cnccc3[nH]2)c1=O)c1ccc2oc3ccccc3c2c1 [Compound 310, (R)-N-((1H-pyrrolo[3,2-c]pyridin-2-yl)methyl)-2-(5-((1-(dibenzo[b,d]furan-2-yl)ethyl)-amino)-6-oxopyrimidin-1(6H)-yl)acetamide] | 100 to 1000
CC(C)(Nc1cnc(-c2ccccc2F)n(CC(=O)NCc2cc3cnccc3[nH]2)c1=O)c1ccc2oc3ccccc3c2c1 [Compound 311, N-((1H-pyrrolo[3,2-c]pyridine-2-yl)methyl)-2-(5-((2-(dibenzo[b,d]furan-2-yl)propan-2-yl)amino)-2-(2-fluorophenyl)-6-oxopyrimidin-1(6H)-yl)acetamide] | 100 to 1000
O=C(Cn1c(-c2cn[nH]c2)ncc(NCc2ccc3oc4ccccc4c3c2)c1=O)NCc1cc2cnccc2[nH]1 [Compound 312, N-((1H-pyrrolo[3,2-c]pyridine-2-yl)methyl)-2-(5-((dibenzo[b,d]furan-2-ylmethyl)amino)-6-oxo-2-(1H-pyrazol-4-yl)pyrimidin-1(6H)-yl)acetamide] | < 100
C[C@@H](Nc1cnc(N2CCn3c(nnc3C(F)(F)F)C2)n(CC(=O)NCc2cc3cnccc3[nH]2)c1=O)c1ccc2oc3ccccc3c2c1 [Compound 313, (R)-N-((1H-pyrrolo[3,2-c]pyridin-2-yl)methyl)-2-(5-((1-(dibenzo[b,d]furan-2-yl)ethyl)-amino)-6-oxo-2-(3-(trifluoro-methyl)-5,6-dihydro-[1,2,4]triazolo[4,3-a]pyrazin-7(8H)-yl)pyrimidin-1(6H)-yl)acet-amide] | 100 to 1000
C[C@H](Nc1ncc(-c2ccccc2F)n(CC(=O)NCc2cc3cnccc3[nH]2)c1=O)c1ccc2oc3ccccc3c2c1 [Compound 314, (S)—N-((1H-pyrrolo[3,2-c]pyridine-2-yl)methyl)-2-(3-((1-(dibenzo[b,d]furan-2-yl)ethyl)amino)-6-(2-fluorophenyl)-2-oxopyrazin-1(2H)-yl)acetamide] | < 100
C[C@H](Nc1cnc(-c2ccncc2)n(CC(=O)NCc2cc3cnccc3[nH]2)c1=O)c1ccc2oc3ccccc3c2c1 [Compound 315, (S)-N-((1H-pyrrolo[3,2-c]pyridin-2-yl)methyl)-2-(5-((1-(dibenzo[b,d]furan-2-yl)ethyl)-amino)-6-oxo-2-(pyridin-4-yl)-pyrimidin-1(6H)-yl)acetamide] | < 100
Cc1cnc(N[C@@H](C)c2ccc3oc4ccccc4c3c2)c(=O)n1CC(=O)NCc1cc2cnccc2[nH]1 [Compound 316, (S)-N-((1H-pyrrolo[3,2-c]pyridin-2-yl)methyl)-2-(3-((1-(dibenzo[b,d]furan-2-yl)ethyl)-amino)-6-methyl-2-oxopyrazin-1(2H)-yl)acetamide] | < 100
Nc1cnc(-c2ccccc2)n(CC(=O)NCc2cc3cnccc3[nH]2)c1=O [Compound 317, N-((1H-pyrrolo[3,2-c]pyridin-2-yl)methyl)-2-(5-amino-6-oxo-2-phenylpyrimidin-1(6H)-yl)-acetamide] | < 100
C[C@@H](Nc1cnc(-c2ccccc2F)n(CC(=O)NCc2cc3cnccc3[nH]2)c1=O)c1ccc2oc3c(F)cccc3c2c1 [Compound 318, (R)—N-((1H-Pyrrolo[3,2-c]pyridine-2-yl)methyl)-2-(5-((1-(6-fluorodibenzo[b,d]furan-2-yl)ethyl)amino)-2-(2-fluorophenyl)-6-oxopyrimidin-1(6H)-yl)acetamide] | < 100
COc1ncc(N[C@H](C)c2ccc3oc4ccccc4c3c2)c(=O)n1CC(=O)NCc1cc2cnccc2[nH]1 [Compound 319, (R)—N-((1H-pyrrolo[3,2-c]pyridine-2-yl)methyl)-2-(5-((1-(dibenzo[b,d]furan-2-yl)ethyl)amino)-2-methoxy-6-oxopyrimidin-1(6H)-yl)acetamide] | > 1000
C[C@@H](Nc1cnc(-c2ncco2)n(CC(=O)NCc2cc3cnccc3[nH]2)c1=O)c1ccc2oc3ccccc3c2c1 [Compound 320, (R)-N-((1H-pyrrolo[3,2-c]pyridin-2-yl)methyl)-2-(5-((1-(dibenzo[b,d]furan-2-yl)ethyl)-amino)-2-(oxazol-2-yl)-6-oxo-pyrimidin-1(6H)-yl)acetamide] | < 100
C[C@@H](Nc1cnc(-c2ccccc2F)n(CC(=O)NCc2cc3cnccc3[nH]2)c1=O)c1coc(-c2ccccc2)n1 [Compound 321, (R)—N-((1H-pyrrolo[3,2-c]pyridine-2-yl)methyl)-2-(2-(2-fluorophenyl)-6-oxo-5-((1-(2-phenyloxazol-4-yl)ethyl)amino)pyrimidin-1(6H)-yl)acetamide] | < 100
C[C@@H](Nc1ncc(-c2ccccc2F)n(CC(=O)NCc2cc3cnccc3[nH]2)c1=O)c1ccc2oc3ccccc3c2c1 [Compound 322, (R)-N-((1H-pyrrolo[3,2-c]pyridin-2-yl)methyl)-2-(3-((1-(dibenzo[b,d]furan-2-yl)ethyl)-amino)-6-(2-fluorophenyl)-2-oxopyrazin-1(2H)-yl)acetamide] | < 100
C[C@@H](Nc1cnc(-c2ccccn2)n(CC(=O)NCc2cc3cnccc3[nH]2)c1=O)c1ccc2oc3ccccc3c2c1 [Compound 323, (R)-N-((1H-pyrrolo[3,2-c]pyridin-2-yl)methyl)-2-(5-((1-(dibenzo[b,d]furan-2-yl)ethyl)-amino)-6-oxo-2-(pyridin-2-yl)-pyrimidin-1(6H)-yl)acetamide] | < 100
C[C@@H](Nc1cnc(C2CCCC2)n(CC(=O)NCc2cc3cnccc3[nH]2)c1=O)c1ccc2oc3ccccc3c2c1 [Compound 324, (R)-N-((1H-pyrrolo[3,2-c]pyr-idin-2-yl)methyl)-2-(2-cyclo-pentyl-5-((1-(dibenzo[b,d]furan-2-yl)ethyl)amino)-6-oxo-pyrimidin-1(6H)-yl)acetamide] | 100 to 1000
C[C@@H](Nc1cnc(C2=CCCCC2)n(CC(=O)NCc2cc3cnccc3[nH]2)c1=O)c1ccc2oc3ccccc3c2c1 [Compound 325, (R)-N-((1H-pyrrolo[3,2-c]pyr-idin-2-yl)methyl)-2-(2-(cyclo-hex-1-en-1-yl)-5-((1-(dibenzo [b,d]furan-2-yl)ethyl)amino)-6-oxopyrimidin-1(6H)-yl)acet-amide] | < 100
C[C@@H](Nc1cnc(-c2ccco2)n(CC(=O)NCc2cc3cnccc3[nH]2)c1=O)c1ccc2oc3ccccc3c2c1 [Compound 326, (R)-N-((1H-pyrrolo[3,2-c]pyridin-2-yl)methyl)-2-(5-((1-(dibenzo[b,d]furan-2-yl)ethyl)-amino)-2-(furan-2-yl)-6-oxo-pyrimidin-1(6H)-yl)acetamide] | < 100

Source: patent publication US20260184707A1, “PHARMACEUTICAL COMPOUNDS FOR THE TREATMENT OF COMPLEMENT MEDIATED DISORDERS” (ALEXION PHARMACEUTICALS, INC., priority 2022, published 2026)
